This is an account of results in the supplement of paper PMC10307832.

Common to all, as to assay: relative viability (nuclei count vs DMSO), 5 days (fraction); higher = more cells survive
Compound in the assay “QS11 + Lapatinib”: C1CC2=C(C1)C=C(C=C2)OC3=NC(=C4C(=N3)N(C=N4)CC5=CC=C(C=C5)C6=CC=CC=C6)N[C@@H](CC7=CC=CC=C7)CO [QS11] + CS(=O)(=O)CCNCc1ccc(-c2ccc3ncnc(Nc4ccc(OCc5cccc(F)c5)c(Cl)c4)c3c2)o1 [Lapatinib] (partner 2 µM)
In outline: (§1)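 A single step with final 0.05% Triton X-100, 1% formaldehyde and 1 ug/ml Hoechst fixed the cells and stained nuclei 5 days after treatment. Lung cancer cell lines in 1536-well plates had been treated by pin tool the day after seeding with one drug alone or a fixed anchor-drug dose plus five library-drug doses (not always all listed) in √10 steps, and nuclei were counted on 4× images. Relative viability is the ratio of nuclei in treated wells to nuclei in vehicle wells, taken as the median of duplicate plates.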

Compound in the assay “QS11 + Foretinib”: C1CC2=C(C1)C=C(C=C2)OC3=NC(=C4C(=N3)N(C=N4)CC5=CC=C(C=C5)C6=CC=CC=C6)N[C@@H](CC7=CC=CC=C7)CO [QS11] + COc1cc2c(Oc3ccc(NC(=O)C4(C(=O)Nc5ccc(F)cc5)CC4)cc3F)ccnc2cc1OCCCN1CCOCC1 [Foretinib] (partner 0.25 µM)
In outline: as §1

Compound in the assay “AZ628 + Decitabine”: CC1=C(C=C(C=C1)NC(=O)C2=CC(=CC=C2)C(C)(C)C#N)NC3=CC4=C(C=C3)N=CN(C4=O)C [AZ628] + Nc1ncn([C@H]2C[C@H](O)[C@@H](CO)O2)c(=O)n1 [Decitabine] (partner 2 µM)
In short, it runs like this: as §1

Compound in the assay “AZ628 + Tozasertib”: CC1=C(C=C(C=C1)NC(=O)C2=CC(=CC=C2)C(C)(C)C#N)NC3=CC4=C(C=C3)N=CN(C4=O)C [AZ628] + Cc1cc(Nc2cc(N3CCN(C)CC3)nc(Sc3ccc(NC(=O)C4CC4)cc3)n2)n[nH]1 [Tozasertib] (partner 0.1 µM)
In short, it runs like this:
as §1

Regarding RERF-LC-KJ, the relative viability in the assay with QS11 + Lapatinib (first compound 0.08 µM) stood at 0.588; with QS11 + Lapatinib (first compound 0.253 µM) it was 0.877; with QS11 + Lapatinib (first compound 0.8 µM), 0.577; in the assay with QS11 + Lapatinib (first compound 2.53 µM), 0.77; with QS11 + Lapatinib (first compound 8 µM), 0.882; with QS11 + Foretinib (first compound 0.08 µM), 0.883. Besides, the relative viability in the assay with QS11 + Foretinib (first compound 0.253 µM) worked out at 0.86; with QS11 + Foretinib (first compound 0.8 µM), 0.62; with QS11 + Foretinib (first compound 2.53 µM), 0.79; in the assay with QS11 + Foretinib (first compound 8 µM) it was 0.834; with AZ628 + Decitabine (first compound 0.08 µM), 0.698; in the assay with AZ628 + Decitabine (first compound 0.253 µM), 0.708. In addition, the relative viability worked out at 0.644 with AZ628 + Decitabine (first compound 0.8 µM); 0.647 with AZ628 + Decitabine (first compound 2.53 µM); 0.688 in the assay with AZ628 + Decitabine (first compound 8 µM); 0.506 with AZ628 + Tozasertib (first compound 0.08 µM); 0.526 in the assay with AZ628 + Tozasertib (first compound 0.253 µM); 0.452 in the assay with AZ628 + Tozasertib (first compound 0.8 µM). The relative viability was found to be 0.493 with AZ628 + Tozasertib (first compound 2.53 µM) and 0.307 in the assay with AZ628 + Tozasertib (first compound 8 µM).
Regarding NCI-H1975, the relative viability in the assay with QS11 + Lapatinib (first compound 0.08 µM) was 0.912; with QS11 + Lapatinib (first compound 0.253 µM), 0.805; in the assay with QS11 + Lapatinib (first compound 0.8 µM), 0.965; in the assay with QS11 + Lapatinib (first compound 2.53 µM) it was 1.03; in the assay with QS11 + Lapatinib (first compound 8 µM), 1.18; with QS11 + Foretinib (first compound 0.08 µM), 1.02. Moreover, the relative viability was 1.02 in the assay with QS11 + Foretinib (first compound 0.253 µM); 1.04 with QS11 + Foretinib (first compound 0.8 µM); 1.32 with QS11 + Foretinib (first compound 2.53 µM); 1.35 with QS11 + Foretinib (first compound 8 µM); 0.402 with AZ628 + Decitabine (first compound 0.08 µM); 0.358 with AZ628 + Decitabine (first compound 0.253 µM). For the same cell line, the relative viability with AZ628 + Decitabine (first compound 0.8 µM) came out at 0.344; with AZ628 + Decitabine (first compound 2.53 µM), 0.338; with AZ628 + Decitabine (first compound 8 µM) it was 0.265; with AZ628 + Tozasertib (first compound 0.08 µM) it was 0.794; in the assay with AZ628 + Tozasertib (first compound 0.253 µM), 0.562; in the assay with AZ628 + Tozasertib (first compound 0.8 µM) it was 0.449. For the same cell line, the relative viability with AZ628 + Tozasertib (first compound 2.53 µM) is 0.453; in the assay with AZ628 + Tozasertib (first compound 8 µM), 0.163.
Consider EPLC-272H, for which the relative viability in the assay with QS11 + Lapatinib (first compound 0.08 µM) was 1.01; with QS11 + Lapatinib (first compound 0.253 µM), 0.855; with QS11 + Lapatinib (first compound 0.8 µM), 0.953; with QS11 + Lapatinib (first compound 2.53 µM), 0.98; in the assay with QS11 + Lapatinib (first compound 8 µM) it was 0.871; in the assay with QS11 + Foretinib (first compound 0.253 µM) it was 0.817. Moreover, the relative viability was 0.64 in the assay with QS11 + Foretinib (first compound 0.8 µM); 0.677 with QS11 + Foretinib (first compound 2.53 µM); 0.692 in the assay with QS11 + Foretinib (first compound 8 µM); 0.297 with AZ628 + Decitabine (first compound 0.08 µM); 0.328 with AZ628 + Decitabine (first compound 0.253 µM); 0.371 in the assay with AZ628 + Decitabine (first compound 0.8 µM). For the same cell line, the relative viability with AZ628 + Decitabine (first compound 2.53 µM) came to 0.319; with AZ628 + Decitabine (first compound 8 µM), 0.225; with AZ628 + Tozasertib (first compound 0.08 µM), 0.28; in the assay with AZ628 + Tozasertib (first compound 0.253 µM) it was 0.179; in the assay with AZ628 + Tozasertib (first compound 0.8 µM), 0.289; with AZ628 + Tozasertib (first compound 2.53 µM), 0.297. Besides, in the assay with AZ628 + Tozasertib (first compound 8 µM), the relative viability came to 0.248.
On to HCC-15, for which the relative viability with QS11 + Lapatinib (first compound 0.08 µM) is 0.874; with QS11 + Lapatinib (first compound 0.253 µM), 0.952; with QS11 + Lapatinib (first compound 2.53 µM), 0.883; with QS11 + Lapatinib (first compound 8 µM), 0.748; in the assay with QS11 + Foretinib (first compound 0.08 µM), 0.999; with QS11 + Foretinib (first compound 0.253 µM), 1.12. For the same cell line, the relative viability with QS11 + Foretinib (first compound 0.8 µM) was 0.764; with QS11 + Foretinib (first compound 2.53 µM), 1.01; with QS11 + Foretinib (first compound 8 µM), 0.899; in the assay with AZ628 + Decitabine (first compound 0.08 µM) it was 0.633; in the assay with AZ628 + Decitabine (first compound 0.253 µM), 0.521; in the assay with AZ628 + Decitabine (first compound 0.8 µM) it was 0.426. Besides, the relative viability with AZ628 + Decitabine (first compound 2.53 µM) worked out at 0.481; in the assay with AZ628 + Decitabine (first compound 8 µM), 0.29; with AZ628 + Tozasertib (first compound 0.08 µM), 0.389; with AZ628 + Tozasertib (first compound 0.253 µM), 0.491; with AZ628 + Tozasertib (first compound 0.8 µM) it was 0.273; with AZ628 + Tozasertib (first compound 2.53 µM) it was 0.337. Besides, the relative viability with AZ628 + Tozasertib (first compound 8 µM) was found to be 0.135.
